This note sets out measurements from US20260167623A1 (NIKANG THERAPEUTICS, INC., priority 2022, published 2026).

SMILES strings stand for the structures.

Experiment [1] addresses T1, CDK2 (Homo sapiens, UniProt P24941).
T1 construct: High-Throughput Measurement of Cellular Endogenous CDK2; endogenous in cells; host or cells: OVCAR3
In words: Inhibition of CDK2: phospho-Rb (S807/811) HTRF measurement in OVCAR3 cells, 24 h. The experiment is classed as cell-based. The settings on record: 24 h compound treatment, read-out: pRB_OVCAR3_24h. The gist of the method: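 IC50 came from a four-parameter fit of DMSO-normalized TR-FRET ratios (665/620 nm) reporting phospho-Rb S807/811. Lysates were taken from OVCAR3 cultures treated 24 h with compound (0.3 to 10,000 nM) and incubated 4 h at room temperature with the antibody pair.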
A general note: Time-resolved FRET reads energy transfer from a long-lived donor to a nearby acceptor.

Experiment [2] addresses T1, CDK2. In words: High-throughput HTRF measurement of cellular endogenous CDK2 level (degradation, DC50/Dmax) in OVCAR3 cells, 6 h. The class given is cell-based. The note with it: 6 h compound treatment, HTRF total CDK2, read-out: DC50_OVCAR3_6h. The gist of the method: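 DC50 and Dmax were derived by four-parameter logistic fit of the […] TR-FRET ratio, scaled between DMSO (0% degradation) and lysis buffer (100%) controls. The ratio came from an HTRF total-CDK2 sandwich immunoassay on lysates of OVCAR3 cells given 0.03–1,000 nM compound for 6 hours.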

As for `Cn1nc(N2CCC(=O)NC2=O)c2ccc(C3CCN(CC4CCN(c5cc(S(=O)(=O)N6CCC(Nc7ncc(C(F)(F)F)cn7)CC6)ccc5C#N)CC4)CC3)c(F)c21` [Example 188, 2-(4-((4-(3-(2,4-dioxotetrahydropyrimidin-1(2H)-yl)-7-fluoro-1-methyl-1H-indazol-6-yl)piperidin-1-yl)methyl)piperidin-1-yl)-4-((4-((5-(trifluoromethyl)pyrimidin-2-yl)amino)piperidin-1-yl)sulfonyl)benzonitrile], the IC50 on CDK2 [1] was in the range of 1 to 100 nM. Also, the DC50 on CDK2 [2] fell in the range of 10 to 100 nM.

For `CN(CCCN1CCC(c2cccc3c2n(C)c(=O)n3C2CCC(=O)NC2=O)CC1)c1cccc(S(=O)(=O)N2CCC(Nc3ncc(C(F)(F)F)cn3)CC2)c1` (stereo not shown) [Example 190, 3-(3-methyl-4-(1-(3-(methyl(3-((4-((5-(trifluoromethyl)pyrimidin-2-yl)amino)piperidin-1-yl)sulfonyl)phenyl)amino)propyl)piperidin-4-yl)-2-oxo-2,3-dihydro-1H-benzo[d]imidazol-1-yl)piperidine-2,6-dione], the IC50 at CDK2 [1] fell in the range of 1 to 100 nM. At CDK2 [2], the DC50 was 10 to 100 nM.

As for `Cn1nc(N2CCC(=O)NC2=O)c2ccc(C3CCN(CC4CCN(c5cc(S(=O)(=O)N6CCC(Nc7ncc(OC(F)F)cn7)CC6)ccc5C#N)CC4)CC3)c(F)c21` [Example 192, 4-((4-((5-(difluoromethoxy)pyrimidin-2-yl)amino)piperidin-1-yl)sulfonyl)-2-(4-((4-(3-(2,4-dioxotetrahydropyrimidin-1(2H)-yl)-7-fluoro-1-methyl-1H-indazol-6-yl)piperidin-1-yl)methyl)piperidin-1-yl)benzonitrile], at CDK2 [1], the IC50 fell in the range of 1 to 100 nM. Besides, the DC50 on CDK2 [2] was 1 to 10 nM.

For the compound `N#Cc1ccc(S(=O)(=O)N2CCC(Nc3ncc(Cl)cn3)CC2)cc1N1CCC(CN2CCC(c3cccc4c3oc(=O)n4C3CCC(=O)NC3=O)CC2)CC1` (stereo not shown) [Example 197, 4-((4-((5-chloropyrimidin-2-yl)amino)piperidin-1-yl)sulfonyl)-2-(4-((4-(3-(2,6-dioxopiperidin-3-yl)-2-oxo-2,3-dihydrobenzo[d]oxazol-7-yl)piperidin-1-yl)methyl)piperidin-1-yl)benzonitrile], the IC50 on CDK2 [1] was 1 to 100 nM. Besides, on CDK2 [2], the DC50 fell in the range of 10 to 100 nM.

With `N#Cc1ccc(S(=O)(=O)N2CCC(Nc3ncc(C(F)(F)F)cn3)CC2)cc1N1CCC(CN2CCC(c3cccc4c3oc(=O)n4C3CCC(=O)NC3=O)CC2)CC1` (stereo not shown) [Example 198, 2-(4-((4-(3-(2,6-dioxopiperidin-3-yl)-2-oxo-2,3-dihydrobenzo[d]oxazol-7-yl)piperidin-1-yl)methyl)piperidin-1-yl)-4-((4-((5-(trifluoromethyl)pyrimidin-2-yl)amino)piperidin-1-yl)sulfonyl)benzonitrile], the IC50 on CDK2 [1] lay in the range of 1 to 100 nM. For the same compound, the DC50 at CDK2 [2] is 1 to 10 nM.

`Cn1nc(N2CCC(=O)NC2=O)c2ccc(C3CCN(CC4CCN(c5cccc(S(=O)(=O)N6CCC(Nc7ncc(Br)cn7)CC6)c5)CC4)CC3)cc21` [Example 199, 1-(6-(1-((1-(3-((4-((5-bromopyrimidin-2-yl)amino)piperidin-1-yl)sulfonyl)phenyl)piperidin-4-yl)methyl)piperidin-4-yl)-1-methyl-1H-indazol-3-yl)dihydropyrimidine-2,4(1H,3H)-dione]: the IC50 on CDK2 [1] is 1 to 100 nM. For the same compound, the DC50 at CDK2 [2] was 1 to 10 nM.

In the case of `O=C1CCC(n2c(=O)oc3c(C4CCN(CC5CCN(c6cccc(S(=O)(=O)N7CCC(Nc8ncc(C(F)(F)F)cn8)CC7)c6)CC5)CC4)cccc32)C(=O)N1` (stereo not shown) [Example 201, 3-(2-oxo-7-(1-((1-(3-((4-((5-(trifluoromethyl)pyrimidin-2-yl)amino)piperidin-1-yl)sulfonyl)phenyl)piperidin-4-yl)methyl)piperidin-4-yl)benzo[d]oxazol-3(2H)-yl)piperidine-2,6-dione], the IC50 at CDK2 [1] lay within 1 to 100 nM. For the same compound, the DC50 on CDK2 [2] lay within 1 to 10 nM.

On to `Cn1c(=O)n(C2CCC(=O)NC2=O)c2cccc(N3CCN(CC4CCN(c5cc(S(=O)(=O)N6CCC(Nc7ncc(Cl)cn7)CC6)ccc5C#N)CC4)CC3)c21` (stereo not shown) [Example 203, 4-((4-((5-chloropyrimidin-2-yl)amino)piperidin-1-yl)sulfonyl)-2-(4-((4-(1-(2,6-dioxopiperidin-3-yl)-3-methyl-2-oxo-2,3-dihydro-1H-benzo[d]imidazol-4-yl)piperazin-1-yl)methyl)piperidin-1-yl)benzonitrile], for which the IC50 on CDK2 [1] is 1 to 100 nM. Moreover, the DC50 on CDK2 [2] was 1 to 10 nM.

On to `Cn1c(=O)n(C2CCC(=O)NC2=O)c2ccc(C3CCN(CC4CCN(c5cc(S(=O)(=O)N6CCC(Nc7ncc(Cl)cn7)CC6)ccc5C#N)CC4)CC3)cc21` (stereo not shown) [Example 204, 4-((4-((5-chloropyrimidin-2-yl)amino)piperidin-1-yl)sulfonyl)-2-(4-((4-(1-(2,6-dioxopiperidin-3-yl)-3-methyl-2-oxo-2,3-dihydro-1H-benzo[d]imidazol-5-yl)piperidin-1-yl)methyl)piperidin-1-yl)benzonitrile], for which the IC50 on CDK2 [1] fell in the range of 1 to 100 nM. Further, on CDK2 [2], the DC50 is 1 to 10 nM.

Regarding `Cn1c(=O)n(C2CCC(=O)NC2=O)c2ccc(C3CCN(CC4CCN(c5cc(S(=O)(=O)N6CCC(Nc7ncc(C(F)(F)F)cn7)CC6)ccc5C#N)CC4)CC3)cc21` (stereo not shown) [Example 205, 2-(4-((4-(1-(2,6-dioxopiperidin-3-yl)-3-methyl-2-oxo-2,3-dihydro-1H-benzo[d]imidazol-5-yl)piperidin-1-yl)methyl)piperidin-1-yl)-4-((4-((5-(trifluoromethyl)pyrimidin-2-yl)amino)piperidin-1-yl)sulfonyl)benzonitrile], on CDK2 [1], the IC50 was in the range of 1 to 100 nM. Besides, on CDK2 [2], the DC50 was 0.5 to 1 nM.

As to `Cn1nc(N2CCC(=O)NC2=O)c2ccc(C3CCN(CC4(C)CCN(c5cccc(S(=O)(=O)N6CCC(Nc7ncc(Cl)cn7)CC6)c5)CC4)CC3)cc21` [Example 206, 1-(6-(1-((1-(3-((4-((5-chloropyrimidin-2-yl)amino)piperidin-1-yl)sulfonyl)phenyl)-4-methylpiperidin-4-yl)methyl)piperidin-4-yl)-1-methyl-1H-indazol-3-yl)dihydropyrimidine-2,4(1H,3H)-dione], the IC50 at CDK2 [1] was in the range of 1 to 100 nM. Further, the DC50 on CDK2 [2] lay in the range of 10 to 100 nM.

With `C=Cc1cnc(NC2CCN(S(=O)(=O)c3cccc(N4CCC(CN5CCC(c6ccc7c(N8CCC(=O)NC8=O)nn(C)c7c6)CC5)CC4)c3)CC2)nc1` [Example 208, 1-(1-methyl-6-(1-((1-(3-((4-((5-vinylpyrimidin-2-yl)amino)piperidin-1-yl)sulfonyl)phenyl)piperidin-4-yl)methyl)piperidin-4-yl)-1H-indazol-3-yl)dihydropyrimidine-2,4(1H,3H)-dione], the IC50 at CDK2 [1] was 1 to 100 nM. The DC50 on CDK2 [2] fell in the range of 1 to 10 nM.

Consider `Cn1c(=O)n(C2CCC(=O)NC2=O)c2cc(F)cc(C3CCN(CC4CCN(c5cc(S(=O)(=O)N6CCC(Nc7ncc(Cl)cn7)CC6)ccc5C#N)CC4)CC3)c21` (stereo not shown) [Example 209, 4-((4-((5-chloropyrimidin-2-yl)amino)piperidin-1-yl)sulfonyl)-2-(4-((4-(1-(2,6-dioxopiperidin-3-yl)-6-fluoro-3-methyl-2-oxo-2,3-dihydro-1H-benzo[d]imidazol-4-yl)piperidin-1-yl)methyl)piperidin-1-yl)benzonitrile], for which the IC50 on CDK2 [1] was 1 to 100 nM. In addition, the DC50 at CDK2 [2] was 10 to 100 nM.

`Cn1nc(-n2ccc(=O)[nH]c2=O)c2ccc(C3CCN(CC4CCN(c5cccc(S(=O)(=O)N6CCC(Nc7ncc(C(F)(F)F)cn7)CC6)c5)CC4)CC3)cc21` [Example 211, 1-(1-methyl-6-(1-((1-(3-((4-((5-(trifluoromethyl)pyrimidin-2-yl)amino)piperidin-1-yl)sulfonyl)phenyl)piperidin-4-yl)methyl)piperidin-4-yl)-1H-indazol-3-yl)pyrimidine-2,4(1H,3H)-dione]: the IC50 at CDK2 [1] was in the range of 1 to 100 nM. The DC50 on CDK2 [2] lay in the range of 1000 to 5000 nM.

For `Cn1nc(N2CCC(=O)NC2=O)c2ccc(C3CCN(CC4(O)CCN(c5cc(S(=O)(=O)N6CCC(Nc7ncc(Cl)cn7)CC6)ccc5C#N)CC4)CC3)cc21` [Example 214, 4-((4-((5-chloropyrimidin-2-yl)amino)piperidin-1-yl)sulfonyl)-2-(4-((4-(3-(2,4-dioxotetrahydropyrimidin-1(2H)-yl)-1-methyl-1H-indazol-6-yl)piperidin-1-yl)methyl)-4-hydroxypiperidin-1-yl)benzonitrile], the IC50 on CDK2 [1] fell in the range of 1 to 100 nM. Further, at CDK2 [2], the DC50 was in the range of 10 to 100 nM.

In the case of `Cn1c(=O)n(C2CCC(=O)NC2=O)c2ccc(F)c(C3CCN(CC4CCN(c5cc(S(=O)(=O)N6CCC(Nc7ncc(Cl)cn7)CC6)ccc5C#N)CC4)CC3)c21` (stereo not shown) [Example 216, 4-((4-((5-chloropyrimidin-2-yl)amino)piperidin-1-yl)sulfonyl)-2-(4-((4-(1-(2,6-dioxopiperidin-3-yl)-5-fluoro-3-methyl-2-oxo-2,3-dihydro-1H-benzo[d]imidazol-4-yl)piperidin-1-yl)methyl)piperidin-1-yl)benzonitrile], the IC50 on CDK2 [1] fell in the range of 1 to 100 nM. At CDK2 [2], the DC50 was 10 to 100 nM.

On to `Cn1c(=O)n(C2CCC(=O)NC2=O)c2cccc(N3CCN(CC4CCN(c5cc(S(=O)(=O)N6CCC(Nc7ncc(C(F)(F)F)cn7)CC6)ccc5C#N)CC4)CC3)c21` (stereo not shown) [Example 217, 2-(4-((4-(1-(2,6-dioxopiperidin-3-yl)-3-methyl-2-oxo-2,3-dihydro-1H-benzo[d]imidazol-4-yl)piperazin-1-yl)methyl)piperidin-1-yl)-4-((4-((5-(trifluoromethyl)pyrimidin-2-yl)amino)piperidin-1-yl)sulfonyl)benzonitrile], for which, at CDK2 [1], the IC50 was 1 to 100 nM. Moreover, the DC50 at CDK2 [2] fell in the range of 10 to 100 nM.
